How the values were obtained:
Experiment in all cases: Bliss excess, mean over the matrix (fraction); higher = more synergy
[1] = tested on: SUP-HD1 (Hodgkin's Lymphoma)
How it was run: (§1)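 Cell lines grown in DMEM/F12 or RPMI with 10% FBS were plated in 1536-well plates and held 24 hours at 37°C, 5% CO2 before 72 hours of exposure to two-drug dose matrices, with DMSO typically at 0.2%. CellTiter-Glo 2.0 luminescence gave viability, which was converted to inhibition. Vehicle wells were set to 0 and blank wells to 1. Combination Emax is the second-highest inhibition in the matrix, and Bliss excess is the observed combination effect minus the expected EA + EB − EA·EB, where EA and EB are the single-agent effects.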

[2] = tested on: MRK-nu-1 (Breast Carcinoma)
How it was run: as §1

[3] = tested on: SW1463 (Colorectal Carcinoma)
How it was run: as §1

[4] = tested on: HT-144 (Melanoma)
How it was run: as §1

[5] = tested on: JJN-3 (Plasma Cell Myeloma)
How it was run: as §1

[6] = tested on: COR-L105 (Lung Adenocarcinoma)
How it was run: as §1

[7] = tested on: HT-3 (Cervical Carcinoma)
How it was run: as §1

[8] = tested on: IGROV-1 (Ovarian Carcinoma)
How it was run: as §1

[9] = tested on: BC-1 (B-Cell Non-Hodgkin's Lymphoma)
How it was run: as §1

[10] = tested on: NCI-H1975 (Lung Adenocarcinoma)
How it was run: as §1

[11] = tested on: TK (B-Cell Non-Hodgkin's Lymphoma)
How it was run: as §1

[12] = tested on: NCI-H2009 (Lung Adenocarcinoma)
How it was run: as §1

[13] = tested on: MG-63 (Osteosarcoma)
How it was run: as §1

[14] = tested on: SCC90 (Head and Neck Carcinoma)
How it was run: as §1

[15] = tested on: Daudi (Burkitt's Lymphoma)
How it was run: as §1

[16] = tested on: CAL-85-1 (Breast Carcinoma)
How it was run: as §1

[17] = tested on: NCI-H2023 (Non-Small Cell Lung Carcinoma)
How it was run: as §1

[18] = tested on: OVKATE (Ovarian Carcinoma)
How it was run: as §1

[19] = tested on: NCI-H1435 (Non-Small Cell Lung Carcinoma)
How it was run: as §1

[20] = tested on: A375 (Melanoma)
How it was run: as §1

Compound	Bliss excess [1]	Bliss excess [2]	Bliss excess [3]	Bliss excess [4]	Bliss excess [5]	Bliss excess [6]	Bliss excess [7]	Bliss excess [8]	Bliss excess [9]	Bliss excess [10]	Bliss excess [11]	Bliss excess [12]	Bliss excess [13]	Bliss excess [14]	Bliss excess [15]	Bliss excess [16]	Bliss excess [17]	Bliss excess [18]	Bliss excess [19]	Bliss excess [20]
C=CCn1c(=O)c2cnc(Nc3ccc(N4CCN(C)CC4)cc3)nc2n1-c1cccc(C(C)(C)O)n1 [AZD1775] + C1CN(CCC1(C(=O)N[C@@H](CCO)C2=CC=C(C=C2)Cl)N)C3=NC=NC4=C3C=CN4 [Capivasertib] (first compound max 3 µM, partner max 3 µM)	-0.0378	-0.0885	-0.0888	0.0014	-0.0417	-0.0627	-0.0073	-0.0435	0.0279	-0.0668	0.0183	-0.0011	-0.0484	-0.0309	0.0313	-0.0528	-0.003	-0.0239	0.0011	–
CN(CCO)CC[C@H](CSc1ccccc1)Nc1ccc(S(=O)(=O)NC(=O)c2ccc(N3CCC([C@@H](O)c4ccccc4-c4ccc(Cl)cc4)CC3)cc2)cc1S(=O)(=O)C(F)(F)F [AZD4320] + C1CN(CCC1(C(=O)N[C@@H](CCO)C2=CC=C(C=C2)Cl)N)C3=NC=NC4=C3C=CN4 [Capivasertib] (first compound max 1 µM, 7x7, partner max 3 µM)	-0.022	-0.0681	-0.0497	-0.0412	-0.0265	-0.0378	-0.0593	-0.0385	-0.0342	-0.0459	0.0106	-0.0467	-0.0785	-0.0306	-0.0512	-0.0219	-0.103	-0.0775	0.0003	-0.0414
CN(CCO)CC[C@H](CSc1ccccc1)Nc1ccc(S(=O)(=O)NC(=O)c2ccc(N3CCC([C@@H](O)c4ccccc4-c4ccc(Cl)cc4)CC3)cc2)cc1S(=O)(=O)C(F)(F)F [AZD4320] + CCN(CCO)CCCOc1ccc2c(Nc3cc(CC(=O)Nc4cccc(F)c4)[nH]n3)ncnc2c1 [AZD2811] (first compound max 1 µM, 7x7, partner max 1 µM)	0.0476	0.0505	-0.0238	0.0304	0.151	-0.0523	–	0.0206	0.091	-0.0226	0.129	-0.0461	0.0838	0.134	0.0078	0.0218	-0.0636	-0.0204	0.004	0.0107
CN(CCO)CC[C@H](CSc1ccccc1)Nc1ccc(S(=O)(=O)NC(=O)c2ccc(N3CCC([C@@H](O)c4ccccc4-c4ccc(Cl)cc4)CC3)cc2)cc1S(=O)(=O)C(F)(F)F [AZD4320] + C[C@@H]1COCCN1C2=NC(=NC(=C2)C3(CC3)[S@](=N)(=O)C)C4=C5C=CNC5=NC=C4 [AZD6738] (first compound max 1 µM, 7x7, partner max 10 µM)	-0.0207	0.0039	-0.0236	-0.0385	0.0041	-0.0711	-0.0285	-0.0353	-0.0014	-0.0134	0.0338	-0.0099	-0.0762	0.019	-0.0403	-0.0048	-0.0255	-0.0581	0.0366	-0.0221
CN(CCO)CC[C@H](CSc1ccccc1)Nc1ccc(S(=O)(=O)NC(=O)c2ccc(N3CCC([C@@H](O)c4ccccc4-c4ccc(Cl)cc4)CC3)cc2)cc1S(=O)(=O)C(F)(F)F [AZD4320] + C[C@@H](Nc1cc(F)cc(F)c1)c1cc(C(=O)N(C)C)cc2c(=O)cc(N3CCOCC3)oc12 [AZD8186] (first compound max 1 µM, 7x7, partner max 3 µM)	0.0322	-0.0216	-0.0706	0.0944	0.0409	-0.0279	0.0383	0.042	0.0677	0.0261	0.0312	-0.0035	-0.0149	0.0276	0.0555	0.0145	-0.034	-0.0277	0.131	0
CN(CCO)CC[C@H](CSc1ccccc1)Nc1ccc(S(=O)(=O)NC(=O)c2ccc(N3CCC([C@@H](O)c4ccccc4-c4ccc(Cl)cc4)CC3)cc2)cc1S(=O)(=O)C(F)(F)F [AZD4320] + Cc1cc2ncnn2cc1Nc1ncc2c(n1)n(C1CCOCC1)c(=O)n2C [AZD7648] (first compound max 1 µM, 7x7, partner max 10 µM)	0.0039	0.0501	-0.0232	-0.0122	0.0461	-0.0146	-0.0403	0.0266	0.0246	-0.0283	-0.0018	-0.0437	-0.0463	0.0682	-0.0115	-0.0118	-0.0585	-0.0269	0.0137	-0.0312
CN(CCO)CC[C@H](CSc1ccccc1)Nc1ccc(S(=O)(=O)NC(=O)c2ccc(N3CCC([C@@H](O)c4ccccc4-c4ccc(Cl)cc4)CC3)cc2)cc1S(=O)(=O)C(F)(F)F [AZD4320] + Nc1ccn([C@@H]2O[C@H](CO)[C@@H](O)C2(F)F)c(=O)n1 [Gemcitabine] (first compound max 1 µM, 7x7, partner max 0.3 µM)	–	0.0117	-0.0192	–	–	-0.0111	–	–	-0.0074	–	–	-0.013	0.0293	–	–	-0.0055	0.0338	-0.0542	-0.0344	0.0047
Cc1cc2ncnn2cc1Nc1ncc2c(n1)n(C1CCOCC1)c(=O)n2C [AZD7648] + COc1cc([C@@H]2c3cc4c(cc3[C@@H](O[C@@H]3O[C@@H]5CO[C@@H](C)O[C@H]5[C@H](O)[C@H]3O)[C@H]3COC(=O)[C@H]23)OCO4)cc(OC)c1O [Etoposide] (first compound max 10 µM, 7x7, partner max 10 µM)	–	0.0829	-0.0081	–	–	0.0299	–	–	0.0896	–	–	0.116	0.0878	–	–	0.0483	0.0401	-0.0214	0.0043	0.119
N#Cc1cnc(Nc2cc(NC[C@H]3CNCCO3)c(C(F)(F)F)cn2)cn1 [SRA737] + C=CCn1c(=O)c2cnc(Nc3ccc(N4CCN(C)CC4)cc3)nc2n1-c1cccc(C(C)(C)O)n1 [AZD1775] (first compound max 10 µM, partner max 1 µM)	–	0.0988	0.0027	–	–	0.031	–	–	0.099	–	–	-0.011	0.0974	–	–	-0.0283	0.0404	-0.0409	0.0093	0.0455
N#Cc1cnc(Nc2cc(NC[C@H]3CNCCO3)c(C(F)(F)F)cn2)cn1 [SRA737] + CCc1c2c(nc3ccc(O)cc13)-c1cc3c(c(=O)n1C2)COC(=O)[C@]3(O)CC [SN-38] (first compound max 10 µM, 7x7, partner max 0.3 µM)	–	-0.128	0.0621	–	–	-0.035	–	–	-0.0242	–	–	0.0451	-0.0251	–	–	-0.0479	-0.0813	-0.045	-0.0243	-0.0288
N#Cc1cnc(Nc2cc(NC[C@H]3CNCCO3)c(C(F)(F)F)cn2)cn1 [SRA737] + Nc1ccn([C@@H]2O[C@H](CO)[C@@H](O)C2(F)F)c(=O)n1 [Gemcitabine] (first compound max 10 µM, 7x7, partner max 0.3 µM)	–	0.0214	0.0633	–	–	-0.0009	–	–	0.0426	–	–	0.125	0.124	–	–	0.0442	0.0332	0.0092	0.0521	0.0398
N#Cc1cnc(Nc2cc(NC[C@H]3CNCCO3)c(C(F)(F)F)cn2)cn1 [SRA737] + O=c1[nH]cc(F)c(=O)[nH]1 [5-Fluorouracil] (first compound max 10 µM, 7x7, partner max 20 µM)	–	0.0291	-0.0006	–	–	-0.0048	–	–	-0.001	–	–	0.0125	0.0106	–	–	0.0703	0.0353	-0.0286	-0.0012	-0.0149
C[C@@H](c1ccc2nccn2c1)n1nnc2ncc(-c3cnn(C)c3)nc21 [Savolitinib] + CN(CC[C@H](CSC1=CC=CC=C1)NC2=C(C=C(C=C2)S(=O)(=O)NC(=O)C3=CC=C(C=C3)N4CCC(CC4)[C@H](C5=CC=CC=C5C6=CC=C(C=C6)Cl)O)S(=O)(=O)C(F)(F)F)CCO [AZD4320] (first compound max 1 µM, 7x7, partner max 1 µM)	0.0355	–	–	-0.0287	-0.0374	–	-0.0238	-0.0735	–	-0.0555	-0.08	–	–	0.0447	-0.0219	–	–	–	–	-0.0463

From the supplement of paper PMC11061612
